Experimental data as given in the supplement of paper PMC10307832.

Tests used:
Assay in all cases: relative viability (nuclei count vs DMSO), 5 days (fraction); higher = more cells survive
VE-821 + Crizotinib = compound: CS(=O)(=O)c1ccc(-c2cnc(N)c(C(=O)Nc3ccccc3)n2)cc1 [VE-821] + C[C@@H](Oc1cc(-c2cnn(C3CCNCC3)c2)cnc1N)c1c(Cl)ccc(F)c1Cl [Crizotinib] (partner 1 µM)
In short: (§1)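 A single step with final 0.05% Triton X-100, 1% formaldehyde and 1 ug/ml Hoechst fixed the cells and stained nuclei 5 days after treatment. Lung cancer cell lines in 1536-well plates had been treated by pin tool the day after seeding with one drug alone or a fixed anchor-drug dose plus five library-drug doses (not always all listed) in √10 steps, and nuclei were counted on 4× images. Relative viability is the ratio of nuclei in treated wells to nuclei in vehicle wells, taken as the median of duplicate plates.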

VE-821 + Vorinostat = compound: CS(=O)(=O)c1ccc(-c2cnc(N)c(C(=O)Nc3ccccc3)n2)cc1 [VE-821] + O=C(CCCCCCC(=O)Nc1ccccc1)NO [Vorinostat] (partner 1 µM)
In short: as §1

Ruxolitinib + Navitoclax = compound: N#CC[C@H](C1CCCC1)n1cc(-c2ncnc3[nH]ccc23)cn1 [Ruxolitinib] + CC1(C)CCC(c2ccc(Cl)cc2)=C(CN2CCN(c3ccc(C(=O)NS(=O)(=O)c4ccc(N[C@H](CCN5CCOCC5)CSc5ccccc5)c(S(=O)(=O)C(F)(F)F)c4)cc3)CC2)C1 [Navitoclax] (partner 0.5 µM)
In short: as §1

Ruxolitinib + Olaparib = compound: N#CC[C@H](C1CCCC1)n1cc(-c2ncnc3[nH]ccc23)cn1 [Ruxolitinib] + O=C(c1cc(Cc2n[nH]c(=O)c3ccccc23)ccc1F)N1CCN(C(=O)C2CC2)CC1 [Olaparib] (partner 8 µM)
In short: as §1

| Cell Line | relative viability (VE-821 + Crizotinib; first compound 0.08 µM) | relative viability (VE-821 + Crizotinib; first compound 0.253 µM) | relative viability (VE-821 + Crizotinib; first compound 0.8 µM) | relative viability (VE-821 + Crizotinib; first compound 2.53 µM) | relative viability (VE-821 + Crizotinib; first compound 8 µM) | relative viability (VE-821 + Vorinostat; first compound 0.08 µM) | relative viability (VE-821 + Vorinostat; first compound 0.253 µM) | relative viability (VE-821 + Vorinostat; first compound 0.8 µM) | relative viability (VE-821 + Vorinostat; first compound 2.53 µM) | relative viability (VE-821 + Vorinostat; first compound 8 µM) | relative viability (Ruxolitinib + Navitoclax; first compound 0.253 µM) | relative viability (Ruxolitinib + Navitoclax; first compound 0.8 µM) | relative viability (Ruxolitinib + Navitoclax; first compound 2.53 µM) | relative viability (Ruxolitinib + Navitoclax; first compound 8 µM) | relative viability (Ruxolitinib + Olaparib; first compound 0.08 µM) | relative viability (Ruxolitinib + Olaparib; first compound 0.253 µM) | relative viability (Ruxolitinib + Olaparib; first compound 0.8 µM) | relative viability (Ruxolitinib + Olaparib; first compound 2.53 µM) | relative viability (Ruxolitinib + Olaparib; first compound 8 µM) | relative viability (Ruxolitinib + Navitoclax; first compound 0.08 µM) |
| --- | --- | --- | --- | --- | --- | --- | --- | --- | --- | --- | --- | --- | --- | --- | --- | --- | --- | --- | --- | --- |
| NCI-H1563 | 1.02 | 0.781 | 0.751 | 0.694 | 0.695 | – | – | – | – | – | – | – | – | – | – | – | – | – | – | – |
| NCI-H1650 | 1.03 | 1.08 | 0.896 | 0.873 | 0.478 | 0.498 | 0.737 | 0.524 | 0.578 | 0.437 | 1.05 | 1.23 | 0.96 | 0.971 | 0.689 | 0.784 | 0.879 | 0.836 | 0.751 | – |
| COR-L 105 | 1.03 | 0.678 | 0.582 | 0.546 | 0.385 | 0.865 | 0.883 | 0.638 | 0.718 | 0.56 | 0.701 | 0.89 | 0.694 | 0.515 | – | 0.614 | 0.652 | 0.614 | 0.606 | 0.707 |
| COR-L23 | 0.731 | 0.76 | 0.695 | 0.726 | 0.562 | 0.418 | 0.561 | 0.36 | 0.373 | 0.157 | 1.1 | 1.21 | 0.907 | 0.638 | 0.369 | 0.371 | 0.376 | 0.329 | 0.272 | 1.03 |
| NCI-H596 | 0.977 | 1.03 | 0.904 | 1.12 | 0.934 | 0.703 | 0.579 | 0.604 | 0.557 | 0.51 | 1.05 | 1 | 1.01 | 1.14 | 0.761 | 0.71 | 0.844 | 0.696 | 0.751 | 0.903 |
| NCI-H322M | 1.03 | – | 0.858 | 0.881 | 0.502 | 0.903 | 0.831 | 0.899 | 0.818 | 0.499 | 1.26 | 1.27 | 1.53 | 1.44 | 0.752 | 0.852 | 0.79 | 0.809 | 1.05 | 1.36 |
| H3255 | 1.05 | 0.981 | 0.761 | 1.03 | 0.847 | 0.953 | 0.742 | 0.915 | 0.772 | 0.805 | 0.393 | 0.474 | 0.423 | 0.425 | 0.532 | 0.547 | 0.539 | 0.443 | 0.457 | 0.248 |
